Columns and labels:
mGluR4 [1] = target: T1, mGluR4 (Homo sapiens, UniProt Q14833); assay: mGluR4 potentiation assay (Table I): response to EC20 agonist in presence of compound; type: cell-based; conditions: for EC50: potentiation of mGluR4 agonist response
Target sequence in this assay (Q14833 whole entry): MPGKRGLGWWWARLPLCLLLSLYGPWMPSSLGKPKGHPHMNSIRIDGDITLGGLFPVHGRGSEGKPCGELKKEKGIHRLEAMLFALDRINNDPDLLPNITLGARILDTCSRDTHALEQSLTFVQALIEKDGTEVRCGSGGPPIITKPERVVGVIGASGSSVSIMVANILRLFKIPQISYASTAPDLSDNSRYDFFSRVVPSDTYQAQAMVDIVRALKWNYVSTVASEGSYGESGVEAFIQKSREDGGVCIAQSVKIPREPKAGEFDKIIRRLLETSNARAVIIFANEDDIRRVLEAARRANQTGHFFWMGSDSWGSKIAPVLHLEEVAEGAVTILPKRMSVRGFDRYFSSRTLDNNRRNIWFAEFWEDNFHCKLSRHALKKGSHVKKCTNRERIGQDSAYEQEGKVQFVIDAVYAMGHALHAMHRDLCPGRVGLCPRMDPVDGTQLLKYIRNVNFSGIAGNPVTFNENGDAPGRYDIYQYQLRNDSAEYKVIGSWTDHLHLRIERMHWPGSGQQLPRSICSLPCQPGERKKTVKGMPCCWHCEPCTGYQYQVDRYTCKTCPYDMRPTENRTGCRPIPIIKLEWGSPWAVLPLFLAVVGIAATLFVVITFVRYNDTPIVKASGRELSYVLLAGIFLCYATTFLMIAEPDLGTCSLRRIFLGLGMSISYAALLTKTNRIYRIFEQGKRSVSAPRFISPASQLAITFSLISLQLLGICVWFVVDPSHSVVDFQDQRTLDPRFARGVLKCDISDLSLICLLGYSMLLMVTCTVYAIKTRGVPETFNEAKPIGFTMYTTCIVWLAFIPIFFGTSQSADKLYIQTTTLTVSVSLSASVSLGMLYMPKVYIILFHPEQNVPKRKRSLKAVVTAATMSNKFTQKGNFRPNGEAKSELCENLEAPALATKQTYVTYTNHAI

mGluR4 [2] = target: T1, mGluR4; assay: human mGluR4 potentiation in transfected CHO cells, Ca2+-sensitive fluorescent dye; type: cell-based; set-up: expressed in transfected cells; host or cells: CHO cells; conditions: unit inferred, read-out: hEC50
Target sequence in this assay (Q14833 33-912): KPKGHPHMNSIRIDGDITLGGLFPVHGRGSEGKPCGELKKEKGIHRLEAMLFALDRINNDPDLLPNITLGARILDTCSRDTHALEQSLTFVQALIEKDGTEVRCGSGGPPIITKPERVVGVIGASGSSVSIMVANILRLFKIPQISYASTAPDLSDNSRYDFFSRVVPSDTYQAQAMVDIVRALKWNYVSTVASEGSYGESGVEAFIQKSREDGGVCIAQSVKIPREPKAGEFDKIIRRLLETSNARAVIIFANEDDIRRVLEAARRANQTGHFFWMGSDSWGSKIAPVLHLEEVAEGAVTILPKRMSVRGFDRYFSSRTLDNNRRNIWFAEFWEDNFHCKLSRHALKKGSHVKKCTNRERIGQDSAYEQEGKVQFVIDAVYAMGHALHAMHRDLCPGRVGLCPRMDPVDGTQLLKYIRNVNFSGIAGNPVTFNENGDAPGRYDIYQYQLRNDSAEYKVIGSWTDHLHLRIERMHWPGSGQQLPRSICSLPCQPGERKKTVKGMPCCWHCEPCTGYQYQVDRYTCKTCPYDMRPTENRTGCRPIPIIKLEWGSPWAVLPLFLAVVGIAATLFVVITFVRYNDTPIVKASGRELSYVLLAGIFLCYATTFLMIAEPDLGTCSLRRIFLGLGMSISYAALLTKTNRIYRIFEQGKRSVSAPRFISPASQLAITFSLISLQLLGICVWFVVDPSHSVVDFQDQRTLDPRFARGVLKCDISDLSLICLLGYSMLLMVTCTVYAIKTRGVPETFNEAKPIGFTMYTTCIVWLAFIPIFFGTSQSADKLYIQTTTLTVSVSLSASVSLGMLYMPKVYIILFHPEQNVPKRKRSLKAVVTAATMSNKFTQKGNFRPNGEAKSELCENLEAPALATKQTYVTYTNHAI

Compound | % Glu Max (mGluR4 [1]; maximum extent of potentiation) | EC50 (mGluR4 [1]) | Emax (mGluR4 [1]; maximum extent of potentiation, read-out: % Glu Max) | EC50 (mGluR4 [2])
O=C(Nc1ccn(S(=O)(=O)c2ccccc2OC(F)(F)F)c1)c1ccccn1 [Example 7] | 90% | 203 nM | – | –
O=C(Nc1ccn(S(=O)(=O)c2cccc(-c3ccccc3)c2)c1)c1ccccn1 [Example 12] | 122% | 3310 nM | – | –
N#Cc1cccc(S(=O)(=O)n2ccc(NC(=O)c3ccccn3)c2)c1 [Example 13] | 104% | 282 nM | – | –
O=C(Nc1ccn(S(=O)(=O)c2cccc(Cl)c2)c1)c1ccccn1 [Example 14] | 139% | 106 nM | – | –
Cc1cccc(S(=O)(=O)n2ccc(NC(=O)c3ccccn3)c2)c1 [Example 15] | 175% | 90 nM | – | –
O=C(Nc1ccn(S(=O)(=O)c2ccc(OC(F)F)cc2)c1)c1ccccn1 [Example 16] | 151% | 162 nM | – | –
CC(C)Cc1ccc(S(=O)(=O)n2ccc(NC(=O)c3ccccn3)c2)cc1 [Example 17] | 30% | 258 nM | – | –
O=C(Nc1ccn(S(=O)(=O)c2ccc(OC(F)(F)F)cc2)c1)c1ccccn1 [Example 18] | 93% | 546 nM | – | –
O=C(Nc1ccn(S(=O)(=O)c2ccc(F)cc2)c1)c1ccccn1 [Example 19] | 137% | 280 nM | – | –
Cc1ccc(S(=O)(=O)n2ccc(NC(=O)c3ccccn3)c2)cc1 [Example 20] | 188% | 57 nM | – | –
O=C(Nc1ccn(S(=O)(=O)c2ccc(Cl)cc2)c1)c1ccccn1 [Example 21] | 215% | 655 nM | – | –
O=C(Nc1ccn(S(=O)(=O)C2CCCCC2)c1)c1ccccn1 [Example 22] | 189% | 1940 nM | – | –
O=C(Nc1ccn(S(=O)(=O)c2ccc(C(F)(F)F)cc2)c1)c1ccccn1 [Example 23] | 85% | 413 nM | – | –
O=C(Nc1ccn(S(=O)(=O)Cc2cccc(F)c2)c1)c1ccccn1 [Example 24] | 140% | 587 nM | – | –
O=C(Nc1ccn(S(=O)(=O)Cc2cccc(Cl)c2)c1)c1ccccn1 [Example 25] | 132% | 839 nM | – | –
O=C(Nc1ccn(S(=O)(=O)Cc2cccc(C(F)(F)F)c2)c1)c1ccccn1 [Example 27] | 117% | 1730 nM | – | –
Cc1ccccc1CS(=O)(=O)n1ccc(NC(=O)c2ccccn2)c1 [Example 28] | 164% | 1130 nM | – | –
O=C(Nc1ccn(S(=O)(=O)Cc2ccccc2F)c1)c1ccccn1 [Example 29] | 161% | 473 nM | – | –

Compound | % Glu Max (mGluR4 [1]; maximum extent of potentiation) | EC50 (mGluR4 [1]) | Emax (mGluR4 [1]; maximum extent of potentiation, read-out: % Glu Max) | EC50 (mGluR4 [2])
O=C(Nc1ccn(S(=O)(=O)Cc2ccccc2Cl)c1)c1ccccn1 [Example 30] | 163% | 83 nM | – | –
O=C(Nc1ccn(S(=O)(=O)Cc2ccc(Cl)cc2Cl)c1)c1ccccn1 [Example 31] | 206% | 445 nM | – | –
O=C(Nc1ccn(S(=O)(=O)Cc2ccc(F)cc2F)c1)c1ccccn1 [Example 32] | 159% | 188 nM | – | –
Cc1ccc(CS(=O)(=O)n2ccc(NC(=O)c3ccccn3)c2)cc1C [Example 33] | 178% | 215 nM | – | –
O=C(Nc1ccn(S(=O)(=O)Cc2ccc(Cl)c(Cl)c2)c1)c1ccccn1 [Example 34] | 159% | 828 nM | – | –
O=C(Nc1ccn(S(=O)(=O)Cc2cc(Cl)cc(Cl)c2)c1)c1ccccn1 [Example 35] | 156% | 3830 nM | – | –
O=C(Nc1ccn(S(=O)(=O)Cc2ccc(C(F)(F)F)cc2)c1)c1ccccn1 [Example 37] | 158% | 154 nM | – | –
Cc1cccc(CS(=O)(=O)n2ccc(NC(=O)c3ccccn3)c2)c1 [Example 38] | 289% | 1450 nM | – | –
O=C(Nc1ccn(S(=O)(=O)c2ccccc2Cl)c1)c1ccccc1 [Example 46, N-(1-(2-chlorophenylsulfonyl)-1H-pyrrol-3-yl)benzamide] | – | – | 85% | –
Cc1ccc(S(=O)(=O)n2ccc(NC(=O)c3nccs3)c2)cc1 [Example 51, N-(1-tosyl-1H-pyrrol-3-yl)thiazole-2-carboxamidc] | – | – | – | 348 nM
CC(c1ccccc1F)S(=O)(=O)n1ccc(NC(=O)c2ccccn2)c1 (stereo not shown) [Example 99, N-(1-((1-(2-fluorophenyl)ethyl)sulfonyl)-1H-pyrrol-3-yl)picolinamidc] | – | – | – | 396 nM
Cc1ccnc(S(=O)(=O)n2ccc(NC(=O)c3ccccn3)c2)c1 [Example 117, N-(1-((4-mcthylpyridin-2-yl)sulfonyl)-1H-pyrrol-3-yl)picolinamide] | – | – | – | 1290 nM
Cc1cc(S(=O)(=O)n2ccc(NC(=O)c3ccccn3)c2)cnc1Cl [Example 119, N-(1-((6-chloro-5-metliylpyridin-3-yl)sulfonyl)-1H-pyrrol-3-yl)picolinamide] | – | – | – | 249 nM
O=C(Nc1ccn(S(=O)(=O)c2ccc(C(F)(F)F)nc2)c1)c1ccccn1 [Example 120, N-(1-((6-(trifluoromethyl)pyricIin-3-yl)sulfonyl)-1H-pyrrol-3-yl)picolinamide] | – | – | – | 666 nM
Cc1ccc(S(=O)(=O)n2ccc(NC(=O)c3ccccn3)c2)o1 [Example 142, N-(1-((5-methylruran-2-yl)sulfonyl)-1H-pyrrol-3-yl)picolinamide] | – | – | – | 256 nM
O=C(Nc1ccn(S(=O)(=O)c2ccc3c(c2)CCO3)c1)c1ccccn1 [Example 145, N-(1-((2,3-dihydrobenzoruran-5-yl)sulfonyl)-1H-pyrrol-3-yl)picolinamide] | – | – | – | 78.4 nM
Cc1ccc(S(=O)(=O)n2ccc(NC(=O)c3ccco3)c2)cc1 [Example 165, N-(1-tosyl-1H-pyrrol-3-yl)furan-2-carboxamidc] | – | – | – | 854 nM
